Target: T1, ADRB2 (Homo sapiens, UniProt P07550)
T1 construct: purchased Promega (in-house HiBiT-GPCR construct library, NanoBRET)
Assay: NanoBRET screen HiBiT-ADRB2 in HEK293
Assay type: binding
Experimental: Each tracer candidate was screened across the entire library of HiBiT-GPCR constructs using NanoBRET as the detection modality. As depicted in Figure 4A, the specificity of interactions was evaluated through decrease in BRET due to competitive displacement of a bound tracer by excess parental compound. Each tracer was analyzed for binding to each HiBiT-GPCR fusion in the absence and in the presence of competing parental compound. Briefly, HEK293 cells were transfected with HiBiT-GPCR constructs diluted into promoterless DNA to reduce expression and maximize translocation to the cell surface. Each tracer candidate was then screened at concentrations of 1 μM and 0.1 μM across cells expressing these fusions. Cells were treated for 1.5 h with tracer either alone or in the presence of 20 μM competing parental compound (i.e., control). BRET was measured upon addition of purified LgBiT and subsequent complementation with HiBiT genetically fused to a GPCR. The specificity of interactions was assessed through a decrease in BRET signal due to competitive displacement of the bound tracer. To further gauge the robustness of these interactions, the fold response over the control (i.e., BRETtracer/BRETcontrol) was calculated. We chose a 1.5-fold response, which translates to ≥7-fold signal over noise as the minimal threshold required to score an interaction as positive.
HiBiT-GPCR DNA constructs were diluted in 10 mM Tris pH 8 to a final concentration of 0.01 μg/μL, arrayed in 96-well plates and stored at −20 °C. For transfection, HEK293 cells were suspended in Opti-MEM (without phenol red) supplemented with 2% fetal bovine serum (Seradigm) and 100 units/mL penicillin–streptomycin (Gibco) at a final concentration of 220,000 cells/mL and dispensed into white 96-well plates at 90 μL/well. Subsequent transfections and screens were carried using an Agilent Bravo Automated Liquid Handling Platform. First, the 96-well HiBiT DNA arrays were diluted 25-fold in Opti-MEM (without serum or phenol red) to a final concentration of 0.0004 μg/μL and 20 μL of the diluted DNAs were transferred into new 96-well plates. Next, promoterless carrier DNA (1 μg/μL) was diluted 25-fold (0.04 μg/μL) and then dispensed into the diluted arrays at 20 μL/well. Following brief mixing, Viafect transfection reagent (Promega) diluted 16-fold into Opti-MEM was dispensed into the plates at 40 μL/well. After mixing by pipetting, plates were incubated for 10 min on the pipetting station deck. The DNA-transfection reagent complexes were then added to plates containing cells. To facilitate the screen, 10 μL of DNA-transfection reagent complexes were added in duplicates to the top 4 and bottom 4 rows, resulting in two identical 48-well arrays per plate. Plates with transfected cells were incubated for 18–20 h at 37 °C/5% CO2. A screen of each tracer across the entire library using two different concentrations requires duplicate plates of transfected cells. Depending on the number of tracers being screened, transfections can be scaled up using the same ratios. The next day, for each tracer, four 20× screening solutions in tracer dilution buffer (Promega) were prepared: two duplicates at final concentration of 20 μM and two duplicates at a final concentration of 2 μM. […] The four resulting solutions were diluted 4-fold in Opti-MEM without serum or phenol red to generate 5× solutions (5 µM and 0.5 µM tracer +/− 100 μM competing compound). To screen the library, a BioTek MultiFlo FX liquid dispenser was used to dispense 22.5 µL of tracer solution to the top 4 rows and 22.5 µL tracer + competing compound solution to the 4 bottom rows. Plates were briefly mixed on an orbital shaker and incubated for 1.5 h at room temperature. […] Plates were briefly mixed on an orbital shaker and incubated for 15 min to allow complementation.

T1 sequence (P07550 whole entry): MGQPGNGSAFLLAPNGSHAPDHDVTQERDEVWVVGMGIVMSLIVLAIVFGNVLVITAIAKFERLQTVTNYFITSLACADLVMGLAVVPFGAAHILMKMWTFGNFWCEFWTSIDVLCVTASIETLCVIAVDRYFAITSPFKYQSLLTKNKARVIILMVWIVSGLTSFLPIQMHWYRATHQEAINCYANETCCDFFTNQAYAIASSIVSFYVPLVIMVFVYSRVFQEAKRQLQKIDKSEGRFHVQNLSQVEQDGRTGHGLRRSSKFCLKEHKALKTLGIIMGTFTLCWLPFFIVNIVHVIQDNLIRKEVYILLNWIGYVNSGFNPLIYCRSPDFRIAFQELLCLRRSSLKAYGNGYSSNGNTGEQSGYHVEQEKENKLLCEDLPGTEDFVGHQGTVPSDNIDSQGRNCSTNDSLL

Row | SMILES | NanoBRET Fold Response (ADRB2, tracer 0.1μM) | NanoBRET Fold Response (ADRB2, tracer 1μM) | further results
1 | Cc1nc2n(c(=O)c1CCN1CCC(c3noc4cc(F)ccc34)CC1)CCCC2OC(=O)NCCOCCOCCOCCOCCNC(=O)CCc1ccc2n1[B-](F)(F)[N+]1=C(c3ccc[nH]3)C=CC1=C2 (centres unmarked) [Risperidone-2-NB590] | 0.97 | 0.98 | –
2 | CCOC(=O)c1cc(C#N)c(N2CCC(C(=O)NS(=O)(=O)Cc3ccccc3/C=C/C(=O)NCCNC(=O)CCc3ccc4n3[B-](F)(F)[N+]3=C(c5ccc[nH]5)C=CC3=C4)CC2)nc1C [AZD1283-1-NB590] | – | – | NanoBRET Fold Response (ADRB2, 0.1μM): 1.01; NanoBRET Fold Response (ADRB2, 1μM): 1.06
3 | Cc1cc2c(s1)Nc1ccccc1N=C2N1CCN(CCCNC(=O)CCOCCOCCOCCOCCNC(=O)CCc2ccc3n2[B-](F)(F)[N+]2=C(c4ccc[nH]4)C=CC2=C3)CC1 [Olanzapine-a-2-NB590] | 1.01 | 1.15 | –
4 | COc1ccccc1N1CCN(CCCCN2C(=O)c3ccc(CNC(=O)CCOCCNC(=O)c4ccc(CNC(=O)CCc5ccc6n5[B-](F)(F)[N+]5=C(c7ccc[nH]7)C=CC5=C6)cc4)cc3C2=O)CC1 [NAN-190-3-NB590] | 1.00 | 1.45 | –
5 | CC(C)N(CC[C@H](c1ccccc1)c1cc(CCNC(=O)CCOCCOCCOCCOCCNC(=O)CCc2ccc3n2[B-](F)(F)[N+]2=C(c4ccc[nH]4)C=CC2=C3)ccc1O)C(C)C [Tolterodine-2-NB590] | 0.93 | 1.03 | –
6 | CN(C)CCC=C1c2ccccc2CCc2ccc(C(=O)NCCNC(=O)CCOCCOCCOCCOCCNC(=O)CCc3ccc4n3[B-](F)(F)[N+]3=C(c5ccc[nH]5)C=CC3=C4)cc21 [Amitriptyline-b-2-NB590] | – | – | NanoBRET Fold Response (tracer at 0.1μM, listed as amitriptyline-b-2-NB590): 1.08; NanoBRET Fold Response (tracer at 1μM, listed as amitriptyline-b-2-NB590): 0.96
7 | O=C(CCOCCOCCOCCOCCNC(=O)CCc1ccc2n1[B-](F)(F)[N+]1=C(c3ccc[nH]3)C=CC1=C2)NCCCN1CCN(C2=Nc3ccccc3Oc3ccc(Cl)cc32)CC1 [Loxapine-a-2-NB590] | 1.06 | 0.94 | –
8 | CN(C)CCC=C1c2ccccc2CCc2ccc(C(=O)NCCNC(=O)CCOCCOCCOCCOCCNC(=O)CCc3ccc4n3[B-](F)(F)[N+]3=C(c5ccc[nH]5)C=CC3=C4)cc21 [Amitriptyline-a-2-NB590] | – | – | NanoBRET Fold Response (tracer at 0.1μM): 1.04; NanoBRET Fold Response (tracer at 1μM): 1.03
9 | O=C(CCc1ccc2n1[B-](F)(F)[N+]1=C(c3ccc[nH]3)C=CC1=C2)NCCOCCOCCNC(=O)OCCOCCN1CCN(C2=Nc3ccccc3Sc3ccccc32)CC1 [Quetiapine-a-2-NB590] | 1.13 | 0.97 | –
10 | COc1ccccc1N1CCN(CCCCN2C(=O)c3ccc(CNC(=O)CCOCCOCCOCCOCCNC(=O)CCc4ccc5n4[B-](F)(F)[N+]4=C(c6ccc[nH]6)C=CC4=C5)cc3C2=O)CC1 [NAN-190-2-NB590] | 1.25 | 1.66 | –
11 | CN1CCN(C2=Nc3cc(Cl)ccc3N(CC(=O)NCCOCCOCCOCCOCCNC(=O)CCc3ccc4n3[B-](F)(F)[N+]3=C(c5ccc[nH]5)C=CC3=C4)c3ccccc32)CC1 [Clozapine-c-2-NB590] | – | – | NanoBRET Fold Response (ADRB2, 0.1μM tracer): 0.99; NanoBRET Fold Response (ADRB2, 1μM tracer): 1.02
12 | N#CN/C(=N\CCNC(=O)c1ccc(N)cc1)NCCCOc1cccc(CN2CCCCC2)c1 [Aminopotentidine (unmodified)] | – | – | NanoBRET Fold Response (ADRB2, other tracers/Aminopotentidine (unmodified), 0.1μM): 1.00; NanoBRET Fold Response (ADRB2, other tracers/Aminopotentidine (unmodified), 1μM): 1.04
13 | COc1ccc2[nH]c(-c3ccc(CNC(=O)CCOCCOCCOCCOCCNC(=O)CCc4ccc5n4[B-](F)(F)[N+]4=C(c6ccc[nH]6)C=CC4=C5)cc3)c(CCNC(C)=O)c2n1 [AzomelatoninICO9-2-NB590] | – | – | NanoBRET Fold Response (0.1μM tracer): 0.94; NanoBRET Fold Response (1μM tracer): 0.99
14 | O=C(CCOCCOCCOCCOCCNC(=O)CCc1ccc2n1[B-](F)(F)[N+]1=C(c3ccc[nH]3)C=CC1=C2)NCCCN1CCN(C2=Nc3cc(Cl)ccc3Nc3ccccc32)CC1 [Clozapine-a-2-NB590] | – | – | NanoBRET Fold Response (ADRB2, 0.1μM tracer): 1.09; NanoBRET Fold Response (ADRB2, 1μM tracer): 1.10
15 | CCCn1c(=O)c2[nH]c(-c3ccc(OCC(=O)NCCNC(=O)CCOCCNC(=O)c4ccc(CNC(=O)CCc5ccc6n5[B-](F)(F)[N+]5=C(c7ccc[nH]7)C=CC5=C6)cc4)cc3)nc2n(CCC)c1=O [XAC-3-NB590] | 1.04 | 1.10 | –
16 | O=C(CCc1ccc2n1[B-](F)(F)[N+]1=C(c3ccc[nH]3)C=CC1=C2)NCc1ccc(C(=O)NCCOCCC(=O)N[C@@H]2CC[C@@]3(O)[C@H]4Cc5ccc(O)c6c5[C@@]3(CCN4CC3CC3)[C@H]2O6)cc1 [Naltrexone-3-NB590] | 1.36 | 0.89 | –
17 | CN(CCC=C1c2ccccc2CCc2ccccc21)C(=O)CCOCCOCCOCCOCCNC(=O)CCc1ccc2n1[B-](F)(F)[N+]1=C(c3ccc[nH]3)C=CC1=C2 [Amitriptyline-e-2-NB590] | – | – | NanoBRET Fold Response (tracer at 1μM): 1.04
18 | N#CN=C(NCCCOc1cccc(CN2CCCCC2)c1)NCCNC(=O)CCOCCOCCOCCOCCNC(=O)CCc1ccc2n1[B-](F)(F)[N+]1=C(c3ccc[nH]3)C=CC1=C2 [Aminopotentidine-2-NB590] | 1.05 | 1.02 | –
19 | COc1ccc2c(n1)c(CCNC(C)=O)cn2CCNC(=O)CCc1ccc2n1[B-](F)(F)[N+]1=C(c3ccc[nH]3)C=CC1=C2 [Azamelatonin-1-NB590] | – | – | NanoBRET Fold Response (0.1μM tracer): 0.97; NanoBRET Fold Response (1μM tracer): 0.90
20 | CC(C)N(CC[C@H](c1ccccc1)c1cc(CCNC(=O)c2ccc(CNC(=O)CCc3ccc4n3[B-](F)(F)[N+]3=C(c5ccc[nH]5)C=CC3=C4)cc2)ccc1O)C(C)C [Tolterodine-BZ-NB590] | 1.04 | 1.19 | –
21 | CN1CCN(C2=Nc3cc(Cl)ccc3Nc3ccc(CNC(=O)CCOCCOCCOCCOCCNC(=O)CCc4ccc5n4[B-](F)(F)[N+]4=C(c6ccc[nH]6)C=CC4=C5)cc32)CC1 [Clozapine-b-2-NB590] | – | – | NanoBRET Fold Response (ADRB2, 0.1μM tracer): 1.01; NanoBRET Fold Response (ADRB2, 1μM tracer): 0.93

Source: PMC8151276, “An Integrated Approach toward NanoBRET Tracers for Analysis of GPCR Ligand Engagement” (Molecules, 2021)
